Reference: PMC12673578 (Molecular Pharmaceutics, 2025)
“And” between values parts separate entries of the source, which are not always exact repeats. Equal values may be shown once. Read-outs that look alike come from different tables or passages of the source.

Legend:
CYP3A = conditions: ketoconazole coadministered, literature value, cited from earlier work
rCYP2C9 = rCYP2C9 (Homo sapiens, UniProt P11712)
Description: (§1) The samples were analyzed using an LC-MS/MS system consisting of microflow LC and Xevo-TQ-XS MS systems (Waters, Milford, MA). An Acquity UPLC HSS T3 C18 column ([…]) equipped with a guard column (Vanguard precolumn, […], 2.1 × 5 mm) was used for the analysis. […] The mass spectrometer was operated in multiple reaction monitoring (MRM) and positive ionization modes with a cone voltage of 30 V using an electrospray ionization source.
(§2) The relative expression factor (REF) for the rCYPs and rCES was calculated by using eq . 2 REF=CYPorCEScontentinpooledHLM(permgprotein)/CYPorCES content in the recombinant system (per mg protein)
(§3) 3 Rateofmetabolism=Vmax×S/Km+S
(§4) The CLint, total for each isoform was then multiplied with the respective REF values, and fraction metabolized (f m) is calculated as shown in eq . 4 fm,CYPi=ScaledCLint,total,2−oxo−clopidogrelCYPi/ScaledactivityCYPall×100

rCYP2C19 = rCYP2C19 (Homo sapiens, UniProt P33261)
Description: as §1, §2, §3, §4

rCYP2B6 = rCYP2B6 (Homo sapiens, UniProt P20813)
Chain of rCYP2B6 (P20813 whole entry): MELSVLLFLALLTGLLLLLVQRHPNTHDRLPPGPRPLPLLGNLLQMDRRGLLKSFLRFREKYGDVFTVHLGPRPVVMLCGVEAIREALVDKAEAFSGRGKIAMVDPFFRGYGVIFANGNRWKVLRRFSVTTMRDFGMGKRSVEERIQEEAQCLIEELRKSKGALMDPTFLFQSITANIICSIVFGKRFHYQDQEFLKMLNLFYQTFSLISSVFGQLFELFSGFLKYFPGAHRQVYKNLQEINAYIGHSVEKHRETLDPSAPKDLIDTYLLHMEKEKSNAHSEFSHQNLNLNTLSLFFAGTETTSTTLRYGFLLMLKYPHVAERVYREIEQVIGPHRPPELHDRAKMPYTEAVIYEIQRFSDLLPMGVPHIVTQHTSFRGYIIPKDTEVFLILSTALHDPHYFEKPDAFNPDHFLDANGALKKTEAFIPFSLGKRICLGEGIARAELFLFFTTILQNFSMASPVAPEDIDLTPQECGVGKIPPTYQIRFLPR
Description: as §1, §2, §3, §4

rCYP1A2 = rCYP1A2 (Homo sapiens, UniProt P05177)
Description: as §1, §2, §3, §4

[1] = pooled fractions 0.5 mg/mL, clopidogrel 150 μM
Description: The protein concentration was maintained at 0.5 mg/mL, and all incubations were conducted in triplicates in a water bath shaker at 37 °C with incubation volumes of 100 μL each. […] Samples were centrifuged at 10,000g for 5 min (4 °C), and the supernatants were collected and diluted 10-fold using a 75:25 (0.1% formic acid in ACN/0.1% formic acid in water) solution before being transferred to an LC-MS vial for analysis.
(§5) The samples were analyzed using an LC-MS/MS system consisting of microflow LC and Xevo-TQ-XS MS systems (Waters, Milford, MA). An Acquity UPLC HSS T3 C18 column (1.8 mm, 1 mm × 100 × 100 mm) equipped with a guard column (Vanguard precolumn, 1.8 mm, 2.1 × 5 mm) was used for the analysis. […] The mass spectrometer was operated in multiple reaction monitoring (MRM) and positive ionization modes with a cone voltage of 30 V using an electrospray ionization source.

rCES1 = rCES1 (Homo sapiens, UniProt P23141); conditions: rCES1 0.1 mg/mL, clopidogrel 0.9–240 μM, 30 min, 37 °C
Chain of rCES1 (P23141 18-567): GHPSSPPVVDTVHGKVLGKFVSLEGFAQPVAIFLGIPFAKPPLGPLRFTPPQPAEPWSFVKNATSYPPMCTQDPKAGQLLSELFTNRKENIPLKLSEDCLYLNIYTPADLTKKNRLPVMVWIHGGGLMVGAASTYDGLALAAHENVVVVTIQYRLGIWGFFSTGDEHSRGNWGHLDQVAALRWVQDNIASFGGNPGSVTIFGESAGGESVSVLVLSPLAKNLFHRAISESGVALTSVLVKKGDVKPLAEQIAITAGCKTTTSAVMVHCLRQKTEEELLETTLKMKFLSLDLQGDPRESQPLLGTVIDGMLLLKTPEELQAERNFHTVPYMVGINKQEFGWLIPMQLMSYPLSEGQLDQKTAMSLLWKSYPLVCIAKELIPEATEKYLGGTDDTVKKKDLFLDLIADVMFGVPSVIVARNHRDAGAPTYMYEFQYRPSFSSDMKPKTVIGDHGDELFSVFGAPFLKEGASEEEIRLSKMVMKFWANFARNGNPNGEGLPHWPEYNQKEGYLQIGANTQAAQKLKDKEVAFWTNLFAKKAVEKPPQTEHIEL
Description: as §5

CES1 G143E variant = conditions: second cited study; literature value; cited from earlier work
[2] = following oral administration; literature value; cited from earlier work
not read = substrate: COC(=O)[C@H](c1ccccc1Cl)N1CCc2sccc2C1; assay: not read; conditions: 5 min, 37 °C
[3] = other: rCYP2C9, clopidogrel 0.3–160 μM
[4] = other: rCYP1A2, clopidogrel 0.3–160 μM
[5] = other: rCYP2C19, clopidogrel 0.3–160 μM

Molecule: CC(=O)N1CCN(c2ccc(OCC3COC(Cn4ccnc4)(c4ccc(Cl)cc4Cl)O3)cc2)CC1 (centres unmarked) [Ketoconazole, ketoconazole]
- Reduction of AUC0–24 of clopidogrel active metabolite (CYP3A; after 75 mg clopidogrel maintenance dose (MD)): 29%
- Reduction of AUC0–24 of clopidogrel active metabolite (CYP3A; after 300 mg clopidogrel loading dose (LD)): 22%
- Decrease of C max of the active metabolite (CYP3A; following LD): 48%
- Decrease of C max of the active metabolite (CYP3A; following MD): 61%

Molecule: COC(=O)[C@H](c1ccccc1Cl)N1CCc2sccc2C1 [clopidogrel]
- f m (rCYP2C9; fraction of 2-oxo-clopidogrel formation by CYP2C9): 40.3%
- K m of 2-oxo-clopidogrel formation (rCYP2C9; rCYP2C9): 20.6 µM
- f m (rCYP2C19; fraction of 2-oxo-clopidogrel formation by CYP2C19): 0.1%
- K m of 2-oxo-clopidogrel formation (rCYP2C19; rCYP2C19): 13.8 ± 5.5 µM and 13.8 µM
- CLint (rCYP2B6): 15.8 μL/mg protein/min
- CLint *REF (rCYP2B6): 0.09 μL/mg protein/min
- f m (rCYP2B6): 1.5%
- CLint (V max/K m) (rCYP2B6; recombinant enzyme): 1.8 μL/pmol P450/min
- f m (rCYP1A2; fraction of 2-oxo-clopidogrel formation by CYP1A2): 0.6%
- K m of 2-oxo-clopidogrel formation (rCYP1A2; rCYP1A2): 17.0 µM
- CCA formation rate normalized with CES1 content (pmol/min/pmol CES1) in HLS9 versus HLM [1]: two-fold higher
- Rate of formation of 2-oxo-clopidogrel in HLM (pmol/min/mg protein) versus HLS9 [1]: two-fold higher
- Rate of formation of CCA in HLM (pmol/min/mg protein) versus HLS9 [1]: two-fold higher
- K m for CCA formation (rCES1): 14.92 ± 4.8 µM
- Increase in platelet aggregation inhibition in G143E carriers compared to noncarriers (CES1 G143E variant): 19%
- Fraction of the drug absorbed [2]: approximately 50%

B1: rCYP2C9 (Homo sapiens) (protein)
chain: MDSLVVLVLCLSCLLLLSLWRQSSGRGKLPPGPTPLPVIGNILQIGIKDISKSLTNLSKVYGPVFTLYFGLKPIVVLHGYEAVKEALIDLGEEFSGRGIFPLAERANRGFGIVFSNGKKWKEIRRFSLMTLRNFGMGKRSIEDRVQEEARCLVEELRKTKASPCDPTFILGCAPCNVICSIIFHKRFDYKDQQFLNLMEKLNENIKILSSPWIQICNNFSPIIDYFPGTHNKLLKNVAFMKSYILEKVKEHQESMDMNNPQDFIDCFLMKMEKEKHNQPSEFTIESLENTAVDLFGAGTETTSTTLRYALLLLLKHPEVTAKVQEEIERVIGRNRSPCMQDRSHMPYTDAVVHEVQRYIDLLPTSLPHAVTCDIKFRNYLIPKGTTILISLTSVLHDNKEFPNPEMFDPHHFLDEGGNFKKSKYFMPFSAGKRICVGEALAGMELFLFLTSILQNFNLKSLVDPKNLDTTPVVNGFASVPPFYQLCFIPV
- kcat (not read; [3]): 0.387 s⁻¹
- kcat/Km (not read; [3]): 1.1 μL/pmol P450/min

B2: rCYP1A2 (Homo sapiens) (protein)
chain: MALSQSVPFSATELLLASAIFCLVFWVLKGLRPRVPKGLKSPPEPWGWPLLGHVLTLGKNPHLALSRMSQRYGDVLQIRIGSTPVLVLSRLDTIRQALVRQGDDFKGRPDLYTSTLITDGQSLTFSTDSGPVWAARRRLAQNALNTFSIASDPASSSSCYLEEHVSKEAKALISRLQELMAGPGHFDPYNQVVVSVANVIGAMCFGQHFPESSDEMLSLVKNTHEFVETASSGNPLDFFPILRYLPNPALQRFKAFNQRFLWFLQKTVQEHYQDFDKNSVRDITGALFKHSKKGPRASGNLIPQEKIVNLVNDIFGAGFDTVTTAISWSLMYLVTKPEIQRKIQKELDTVIGRERRPRLSDRPQLPYLEAFILETFRHSSFLPFTIPHSTTRDTTLNGFYIPKKCCVFVNQWQVNHDPELWEDPSEFRPERFLTADGTAINKPLSEKMMLFGMGKRRCIGEVLAKWEIFLFLAILLQQLEFSVPPGVKVDLTPIYGLTMKHARCEHVQARLRFSIN
- kcat (not read; [4]): 0.258 s⁻¹
- kcat/Km (not read; [4]): 0.9 μL/pmol P450/min

B3: rCYP2C19 (Homo sapiens) (protein)
chain: MDPFVVLVLCLSCLLLLSIWRQSSGRGKLPPGPTPLPVIGNILQIDIKDVSKSLTNLSKIYGPVFTLYFGLERMVVLHGYEVVKEALIDLGEEFSGRGHFPLAERANRGFGIVFSNGKRWKEIRRFSLMTLRNFGMGKRSIEDRVQEEARCLVEELRKTKASPCDPTFILGCAPCNVICSIIFQKRFDYKDQQFLNLMEKLNENIRIVSTPWIQICNNFPTIIDYFPGTHNKLLKNLAFMESDILEKVKEHQESMDINNPRDFIDCFLIKMEKEKQNQQSEFTIENLVITAADLLGAGTETTSTTLRYALLLLLKHPEVTAKVQEEIERVIGRNRSPCMQDRGHMPYTDAVVHEVQRYIDLIPTSLPHAVTCDVKFRNYLIPKGTTILTSLTSVLHDNKEFPNPEMFDPRHFLDEGGNFKKSNYFMPFSAGKRICVGEGLARMELFLFLTFILQNFNLKSLIDPKDLDTTPVVNGFASVPPFYQLCFIPV
- kcat (not read; [5]): 0.36 s⁻¹
- kcat/Km (not read; [5]): 1.6 μL/pmol P450/min
